Series [1] concerns the target dopamine transporter (DAT) (Rattus norvegicus, UniProt P23977). The experiment in a line: Dopamine reuptake ([^3H]dopamine uptake) inhibition in rat brain synaptosomes. The note with it: for IC50: DA Uptake EC50 (nM ± SD), rat caudate synaptosomes, 5 nM [^3H]dopamine, 15 min, 25° C., three experiments pooled; for Emax: read-out: DA Uptake Emax (% I ± SD).

Chain of dopamine transporter (DAT) (P23977 whole entry): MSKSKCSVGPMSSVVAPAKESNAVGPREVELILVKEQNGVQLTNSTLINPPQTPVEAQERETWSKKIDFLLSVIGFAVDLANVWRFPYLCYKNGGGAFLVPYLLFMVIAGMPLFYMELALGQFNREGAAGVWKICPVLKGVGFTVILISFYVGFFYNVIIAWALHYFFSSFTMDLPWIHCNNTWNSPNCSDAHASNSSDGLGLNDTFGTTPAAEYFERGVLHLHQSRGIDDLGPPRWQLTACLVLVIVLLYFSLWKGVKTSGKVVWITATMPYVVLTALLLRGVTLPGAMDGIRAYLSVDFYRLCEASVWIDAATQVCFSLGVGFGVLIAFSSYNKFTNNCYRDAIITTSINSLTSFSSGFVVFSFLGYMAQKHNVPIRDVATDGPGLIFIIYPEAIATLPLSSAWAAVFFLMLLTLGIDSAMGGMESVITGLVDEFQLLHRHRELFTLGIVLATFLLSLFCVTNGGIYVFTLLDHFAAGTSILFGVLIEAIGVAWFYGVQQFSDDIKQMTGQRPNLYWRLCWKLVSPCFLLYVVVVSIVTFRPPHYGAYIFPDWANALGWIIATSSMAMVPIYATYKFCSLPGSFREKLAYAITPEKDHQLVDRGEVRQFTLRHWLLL

On to `CCC(CNc1nc(-c2cn3ccnc3cc2C)nc2ccccc12)c1ccccc1` (stereo not drawn) [compound 188, 2-(7-Methylimidazo[1,2-A]Pyridin-6-yl)-N-(2-Phenylbutyl)Quinazolin-4-Amine], for which the melting point (usually the temperature, or range, at which the solid turns liquid) lay within 232 to 234 °C. Besides, in series [1], the IC50 (usually the concentration that gives 50% inhibition) is 1.4 ± 0.2 nM and the Emax (as a rule, the size of the effect at its maximum, as opposed to the concentration needed) stood at 75 ± 2%.
`Cn1ncc2c(-c3nc(NCC(c4ccccc4)c4ccccc4)c4ccccc4n3)cccc21` [compound 65, N-(2,2-Diphenylethyl)-2-(1-Methyl-1H-Indazol-4-yl)Quinazolin-4-Amine] had a melting point of 201 °C. In series [1], 155 ± 92 nM corresponded to half-maximal inhibition (IC50) and the maximum response (Emax) was 50 ± 6%.
`Cc1cc2nccn2cc1-c1nc(NCCc2ccccc2)c2ccccc2n1` [compound 160, 2-(7-Methylimidazo[1,2-A]Pyridin-6-yl)-N-Phenethylquinazolin-4-Amine] showed a melting point of 192 to 196 °C. Moreover, in series [1], the IC50 came to 11 ± 1 nM and the Emax is 69 ± 1%.
On the same counts, the results for `O=C(Nc1nc(-c2ccc3nccn3c2)nc2ccccc12)C(c1ccccc1)c1ccccc1` [compound 144, N-(2-(Imidazo[1,2-A]Pyridin-6-yl)Quinazolin-4-yl)-2,2-Diphenylacetamide] are 218 to 220 °C, 160 ± 28 nM and 61 ± 2%.
`COC(CNc1nc(-c2cn3ccnc3cc2C)nc2ccccc12)c1ccccc1` (stereo not drawn) [compound 187, N-(2-Methoxy-2-phenylethyl)-2-(7-methylimidazo[1,2-a]pyridin-6-yl)quinazolin-4-amine] yielded a melting point of 215 to 218 °C. Also, in series [1], half-maximal inhibition (IC50) required 5.7 ± 1.6 nM and the maximum response (Emax) came out at 74 ± 3%.
On the same counts, the results for `FC(F)(F)CNc1ncc(-c2nc(NCC(c3ccccc3)c3ccccc3)c3ccccc3n2)cn1` [compound 45, N-(2,2-Diphenylethyl)-2-(2-((2,2,2-Trifluoroethyl)Amino)Pyrimidin-5-yl)Quinazolin-4-Amine] are 224 °C, 175 ± 68 nM and 58 ± 4%.
The corresponding values for `c1ccc(OC(CNc2nc(-c3ccc4nccn4c3)nc3ccccc23)c2ccccc2)cc1` (stereo not drawn) [compound 175, 2-(Imidazo[1,2-A]Pyridin-6-yl)-N-(2-Phenoxy-2-Phenylethyl)Quinazolin-4-Amine] are 286 to 288 °C, 106 ± 19 nM and 68 ± 2%.
The corresponding values for `c1ccc(C(CNc2nc(-c3ccsc3)nc3ccccc23)c2ccccc2)cc1` [compound 10, N-(2,2-Diphenylethyl)-2-(thiophen-3-yl)quinazolin-4-amine] are 152 to 155 °C, 250 nM and less than 100%.
Consider `COCCNc1ncc(-c2nc(NCC(c3ccccc3)c3ccccc3)c3ccccc3n2)cn1` [compound 47, N-(2,2-Diphenylethyl)-2-(2-((2-Methoxyethyl)Amino)Pyrimidin-5-yl)Quinazolin-4-Amine], for which the melting point was 199 °C. Moreover, in series [1], the IC50 is 148 ± 40 nM and the Emax is 73 ± 4%.
The compound `c1ccc(C(CNc2nc(-n3ccnc3)nc3ccccc23)c2ccccc2)cc1` [compound 48, N-(2,2-Diphenylethyl)-2-(1H-Imidazol-1-yl)Quinazolin-4-Amine] registered a melting point of 231 °C. In series [1], half-maximal inhibition (IC50) required 38 ± 5 nM and the Emax came out at 73 ± 2%.
As for `c1ccc(C(CNc2nc(-c3ccc4[nH]nnc4c3)nc3ccccc23)c2ccccc2)cc1` [compound 63, 2-(1H-Benzo[D][1,2,3]Triazol-5-yl)-N-(2,2-Diphenylethyl)Quinazolin-4-Amine], the melting point came to 220 °C. Also, in series [1], inhibition was half-maximal at 192 ± 37 nM (IC50) and the Emax was 72 ± 3%.
The compound `c1ccc(C(CNc2nc(N3Cc4ccccc4C3)nc3ccccc23)c2ccccc2)cc1` [compound 189, N-(2,2-Diphenylethyl)-2-(Isoindolin-2-yl)Quinazolin-4-Amine] showed a melting point of 293 to 295 °C. Also, in series [1], inhibition was half-maximal at 24 ± 7 nM (IC50) and the Emax came to 83 ± 4%.

These data come from patent publication US9873702B2, “Heterocyclic compounds as biogenic amine transport modulators” (Southern Research Institute, priority 2014, dated 2018).
